What follows are compounds tested against T1, Beta-secretase 1 (Homo sapiens, UniProt P56817) (assay: Inhibition of BACE1).
T1 sequence (P56817 whole entry): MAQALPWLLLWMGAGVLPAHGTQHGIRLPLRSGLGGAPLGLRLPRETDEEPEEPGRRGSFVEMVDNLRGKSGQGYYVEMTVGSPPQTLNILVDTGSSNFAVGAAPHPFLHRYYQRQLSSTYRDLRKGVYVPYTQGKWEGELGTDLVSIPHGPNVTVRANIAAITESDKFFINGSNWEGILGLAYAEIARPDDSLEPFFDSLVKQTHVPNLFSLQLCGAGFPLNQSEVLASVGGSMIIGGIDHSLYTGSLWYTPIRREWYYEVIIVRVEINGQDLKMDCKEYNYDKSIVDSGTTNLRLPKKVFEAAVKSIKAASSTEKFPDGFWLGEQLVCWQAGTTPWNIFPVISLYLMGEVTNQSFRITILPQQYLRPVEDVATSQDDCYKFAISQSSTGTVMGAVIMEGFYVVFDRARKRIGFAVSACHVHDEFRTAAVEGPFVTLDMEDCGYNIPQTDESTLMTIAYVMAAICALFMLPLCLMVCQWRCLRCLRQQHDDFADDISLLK

IC50 [µM]	SMILES
0.005	CCNc1cc(C(=O)N[C@@H](Cc2ccccc2)[C@H](O)CNc2cccc(C(F)(F)F)c2)cc(N2CCCCS2(=O)=O)c1

The compounds below were run against T1, Beta-secretase 1 (assay: Inhibition of BACE1 in human HEK293 cells transfected with pCDNA-neo-SEAP-APP assessed as secreted alkaline phosphatase after cleavage of beta-site of APP by fluorescence assay).
Format: cell-based

SMILES	IC50 [µM]
CC(=O)C1=C(C)N(CC(=O)OC(C)C)C(C)=C(C(=O)N[C@@H](Cc2ccccc2)[C@H](O)CNc2cccc(F)c2)C1C (stereo not given in full)	26.4
CC(=O)C1=C(C)N(CC(=O)OC(C)C)C(C)=C(C(=O)N[C@@H](Cc2ccccc2)[C@H](O)CNC2CC2)C1C (stereo not given in full)	29.3
CC(C)OC(=O)CN1C=C(C(=O)N[C@@H](Cc2ccccc2)[C@H](O)CNC2CC2)C(C)C(C(=O)OC(C)(C)C)=C1 (stereo not given in full)	31.9
CC1=C(C(=O)N[C@@H](Cc2ccccc2)[C@H](O)CNC2CC2)C(C)C(C(=O)OCc2ccccc2)=C(C)N1CC(=O)N1CCOCC1 (stereo not given in full)	28.4
CC(=O)C1=C(C)N(CC(=O)OC(C)C)C=C(C(=O)N[C@@H](Cc2ccccc2)[C@H](O)CNc2cccc(F)c2)C1C (stereo not given in full)	29.3
CCC1C(C(=O)N[C@@H](Cc2ccccc2)[C@H](O)CNC2CC2)=C(C)N(S(C)(=O)=O)C(C)=C1C(=O)N[C@H](C)c1ccccc1 (stereo not given in full)	16.2
CC1=C(C(=O)NOCc2ccccc2)C(C)C(C(=O)N[C@@H](Cc2ccccc2)[C@H](O)CNC2CC2)=C(C)N1CC(=O)OC(C)C (stereo not given in full)	9
COc1cccc(CNC[C@@H](O)[C@H](Cc2ccccc2)NC(=O)C2=CN(CC(=O)OC(C)C)C(C)=C(C(C)=O)C2C)c1 (stereo not given in full)	26.1
CC1=C(C(=O)NOCc2ccccc2)C(C(C)C)C(C(=O)N[C@@H](Cc2ccccc2)[C@H](O)CNC2CC2)=C(C)N1S(C)(=O)=O (stereo not given in full)	11
CCCC1C(C(C)=O)=C(C)N(CC(=O)OC(C)C)C(C)=C1C(=O)N[C@@H](Cc1ccccc1)[C@H](O)CNC1CC1 (stereo not given in full)	33.1
CC1=C(C(=O)N[C@@H](Cc2ccccc2)[C@H](O)CNC2CC2)C(C)C(C(=O)N[C@H](C)c2ccccc2)=C(C)N1S(C)(=O)=O (stereo not given in full)	16.1
COC(=O)CN1C(C)=C(C(=O)NOCc2ccccc2)C(C)C(C(=O)N[C@@H](Cc2ccccc2)[C@H](O)CNC2CC2)=C1C (stereo not given in full)	15.2
CC(=O)OCCCN1C(C)=C(C(=O)N[C@@H](Cc2ccccc2)[C@H](O)CNC2CC2)C(C)C(C(=O)OCc2ccccc2)=C1C (stereo not given in full)	26.9
CCCC1C(C(=O)N[C@@H](Cc2ccccc2)[C@H](O)CNC2CC2)=CN(CC(=O)OC(C)C)C=C1C(=O)OC(C)(C)C (stereo not given in full)	24.6
CC(C)OC(=O)CN1C=C(C(=O)N[C@@H](Cc2ccccc2)[C@H](O)CNC2CC2)C(C)C(C(=O)N[C@H](C)c2ccccc2)=C1 (stereo not given in full)	32.8
CC1=C(C(=O)OCc2ccccc2)C(C)C(C(=O)N[C@@H](Cc2ccccc2)[C@H](O)CNC2CC2)=CN1CC(=O)OC(C)C (stereo not given in full)	16.1
CC1=C(C(=O)NOCc2ccccc2)C(c2ccccc2)C(C(=O)N[C@@H](Cc2ccccc2)[C@H](O)CNC2CC2)=C(C)N1S(C)(=O)=O (stereo not given in full)	21.4
CCOC(=O)CN1C(C)=C(C(=O)NOCc2ccccc2)C(C)C(C(=O)N[C@@H](Cc2ccccc2)[C@H](O)CNC2CC2)=C1C (stereo not given in full)	15.5

Next, values leading:

IC50 [µM]	SMILES
14.9	CC1=C(C(=O)NOCc2ccccc2)C(C)C(C(=O)N[C@@H](Cc2ccccc2)[C@H](O)CNC2CC2)=C(C)N1S(C)(=O)=O (stereo not given in full)
29.6	CCCC1C(C(=O)N[C@@H](Cc2ccccc2)[C@H](O)CNC2CC2)=CN(CC(=O)OC(C)C)C=C1C(=O)N[C@H](C)c1ccccc1 (stereo not given in full)
27.1	CCCC1C(C(C)=O)=C(C)N(CC(=O)OC(C)C)C(C)=C1C(=O)N[C@@H](Cc1ccccc1)[C@H](O)CNc1cccc(F)c1 (stereo not given in full)
26.6	CCCC1C(C(C)=O)=C(C)N(CC(=O)OC(C)C)C(C)=C1C(=O)N[C@@H](Cc1ccccc1)[C@H](O)CNc1cccc(OC)c1 (stereo not given in full)
28.2	CC1=C(C(=O)N[C@@H](Cc2ccccc2)[C@H](O)CNC2CC2)C(C)C(C(=O)OCc2ccccc2)=C(C)N1CC(=O)N(C)C(C)C (stereo not given in full)
9.5	CCC1C(C(=O)NOCc2ccccc2)=C(C)N(S(C)(=O)=O)C(C)=C1C(=O)N[C@@H](Cc1ccccc1)[C@H](O)CNC1CC1 (stereo not given in full)
23.2	CCCC1C(C(C)=O)=C(C)N(CC(=O)OC(C)C)C(C)=C1C(=O)N[C@@H](Cc1ccccc1)[C@H](O)CNCc1cccc(OC)c1 (stereo not given in full)
8.1	CCCC1C(C(=O)NOCc2ccccc2)=C(C)N(S(C)(=O)=O)C(C)=C1C(=O)N[C@@H](Cc1ccccc1)[C@H](O)CNC1CC1 (stereo not given in full)
30.4	CCCC1C(C(=O)N[C@@H](Cc2ccccc2)[C@H](O)CNc2cccc(OC)c2)=CN(CC(=O)OC(C)C)C=C1C(=O)OC(C)(C)C (stereo not given in full)
31.2	CCCC1C(C(=O)N[C@@H](Cc2ccccc2)[C@H](O)CNc2cccc(OC)c2)=CN(CC(=O)OC(C)C)C=C1C(=O)N[C@H](C)c1ccccc1 (stereo not given in full)
39.1	CC1=C(C(=O)N[C@@H](Cc2ccccc2)[C@H](O)CNC2CC2)C(C)C(C(=O)OCc2ccccc2)=C(C)N1CC(=O)N(C)C (stereo not given in full)
